# Measurements taken from patent US20200246284A1 (Academia Sinica, priority 2015, published 2020).
# Read-outs that look alike come from different tables or passages of the source.
# Columns and labels:
# in vitro = conditions: rat, microsomes
# [1] = rat
# H889 = test: Cytotoxicity SCLC 72 hr alamar blue; assay type: cell-based, human; conditions: Homo sapiens, NCI-H889, 72 h
# MA-10-W51 = test: Cytotoxicity leukemia; assay type: cell-based, human; conditions: growth factor dependent MA-10-W51
# Excerpt: Human cord blood CD34+ cells transduced with MLL-AF9 gene: MA-10, MA-18. Human bone marrow CD34+ cells transduced with MLL-AF9 gene: MA-23. Human cord blood CD34+ cells transduced with MLL-AF9 and N-ras genes: MA-9.3, […] ).
# [2] = system: BCI-NSI hTERT bronchial epithelium; test: Cytotoxicity normal tissue 72 hr; assay type: cell-based, human
# [3] = system: HUVEC umbilical endothelium; test: Cytotoxicity normal tissue 72 hr; assay type: cell-based, human
# JEKO-1 [4] = test: Cytotoxicity mantle cell lymphoma
# Experimental: (§1) After 72 hours, the cultures were pulsed with Alamar Blue overnight, and the fluorescent intensity of resulted cultures was measured by a Synergy H1 plate-reader (BioTek Inc).
# CV1 renal fibroblasts = test: Cytotoxicity normal tissue 72 hr; assay type: cell-based, African green monkey (Cercopithecus aethiops); conditions: Chlorocebus sabaeus, Fibroblast
# [5] = system: nude mice bearing prostate 22Rv/HL2 tumor xenografts; conditions: mouse, in vivo
# [6] = system: nude mice bearing prostate 22Rv/HL2; conditions: mouse, in vivo
# [7] = system: nude mice bearing prostate 22Rv/HL2; conditions: mouse, in vivo; remark: listed apart in the source
# Z-138 [8] = test: Cytotoxicity mantle cell lymphoma; conditions: read-out: cytotoxicity IC50, Z-138, mantle cell lymphoma
# Experimental: as §1
# Mino [9] = test: Combination with BO-1055, MCL (Tables 28, 29); assay type: cell-based, human
# Ly18 = test: Cytotoxicity DLBCL; conditions: read-out: cytotoxicity IC50; LY18, DLBCL GCB
# Experimental: as §1
# Toledo = conditions: human
# Experimental: as §1
# Granta = test: Combination with BO-1055, MCL (Tables 28, 29); assay type: cell-based, human
# SUDHL-5 = test: Cytotoxicity DLBCL; conditions: read-out: cytotoxicity IC50; SUDHL-5, DLBCL GCB
# hERG = hERG (Homo sapiens, UniProt Q12809); test: in vitro
# hERG, sequence (Q12809 whole entry): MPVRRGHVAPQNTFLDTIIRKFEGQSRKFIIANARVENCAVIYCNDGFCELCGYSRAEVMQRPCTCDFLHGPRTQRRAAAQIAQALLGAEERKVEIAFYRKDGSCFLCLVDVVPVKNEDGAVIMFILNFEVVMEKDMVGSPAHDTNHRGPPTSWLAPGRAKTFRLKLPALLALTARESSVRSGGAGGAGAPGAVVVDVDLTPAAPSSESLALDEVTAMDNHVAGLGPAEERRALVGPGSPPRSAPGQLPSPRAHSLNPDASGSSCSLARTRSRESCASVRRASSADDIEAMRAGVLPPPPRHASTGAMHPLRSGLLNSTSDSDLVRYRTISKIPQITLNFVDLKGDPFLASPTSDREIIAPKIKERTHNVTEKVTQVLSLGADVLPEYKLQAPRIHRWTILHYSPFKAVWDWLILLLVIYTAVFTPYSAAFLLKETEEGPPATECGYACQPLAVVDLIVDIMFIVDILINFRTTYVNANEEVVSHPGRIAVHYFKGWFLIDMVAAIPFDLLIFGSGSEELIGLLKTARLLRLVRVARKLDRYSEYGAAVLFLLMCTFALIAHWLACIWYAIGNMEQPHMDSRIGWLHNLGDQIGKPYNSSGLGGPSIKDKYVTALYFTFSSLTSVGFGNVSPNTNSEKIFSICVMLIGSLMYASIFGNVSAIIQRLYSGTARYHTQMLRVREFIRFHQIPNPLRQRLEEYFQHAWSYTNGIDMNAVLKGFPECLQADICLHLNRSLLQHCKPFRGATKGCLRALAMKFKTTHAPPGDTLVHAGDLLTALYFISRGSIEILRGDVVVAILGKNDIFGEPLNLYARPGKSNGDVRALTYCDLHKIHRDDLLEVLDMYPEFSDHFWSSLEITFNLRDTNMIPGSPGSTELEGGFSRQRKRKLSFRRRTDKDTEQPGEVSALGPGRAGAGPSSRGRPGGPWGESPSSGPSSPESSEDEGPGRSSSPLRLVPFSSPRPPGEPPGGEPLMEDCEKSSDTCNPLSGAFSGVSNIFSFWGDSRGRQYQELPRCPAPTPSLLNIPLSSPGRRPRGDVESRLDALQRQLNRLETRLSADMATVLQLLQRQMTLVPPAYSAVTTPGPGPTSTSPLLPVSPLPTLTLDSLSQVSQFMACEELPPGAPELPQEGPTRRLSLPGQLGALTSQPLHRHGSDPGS
# HBL1 = conditions: human
# Experimental: as §1
# U2932 = conditions: human
# Experimental: as §1
# NECB-1 = test: Cytotoxicity mantle cell lymphoma
# Experimental: as §1
# A204 rhabdomyosarcoma = test: Cytotoxicity sarcoma; conditions: read-out: cytotoxic activity (IC50), A204 (rhabdoid?)
# Experimental: as §1
# Z-138 [10] = test: Combination with BO-1055, MCL (Tables 28, 29); assay type: cell-based, human
# Ly19 = test: cells; conditions: Homo sapiens, read-out: cytotoxicity IC50
# Farage = test: cells; conditions: Homo sapiens, read-out: cytotoxicity IC50
# NECB1 = test: Combination with BO-1055, MCL (Tables 28, 29); assay type: cell-based, human
# REC-1 = test: Combination with BO-1055, MCL (Tables 28, 29); assay type: cell-based, human
# FBMC fetal BM stroma = test: Cytotoxicity normal tissue 72 hr; assay type: cell-based; conditions: Homo sapiens
# Granta-519 [11] = system: Granta-519
# Experimental: as §1
# JEKO-1 [12] = conditions: human
# Experimental: as §1
# Mino [13] = system: Mino
# Experimental: as §1
# Mino [14] = test: Cytotoxicity mantle cell lymphoma; conditions: human, Mino mantle cell lymphoma cells, 72 h
# Experimental: as §1
# Granta-519 [15] = test: Cytotoxicity mantle cell lymphoma; conditions: human, Granta-519 mantle cell lymphoma cells, 72 h
# Experimental: as §1
# BMMSC BM mesenchyme = test: Cytotoxicity normal tissue 72 hr; assay type: cell-based, human
# [16] = system: FTE-hTERT Fallopian epithelium; test: Cytotoxicity normal tissue 72 hr; assay type: cell-based, human
# [17] = system: Rhabdomyosarcoma cell lines; test: Cytotoxicity, sarcoma panel (Table 30); assay type: cell-based; conditions: Homo sapiens, 5/6 rhabdomyosarcoma lines
# [18] = system: normal human, murine or primate cell and tissue types; test: Cytotoxicity, panel of normal tissues (MTT, alamar blue); assay type: cell-based; conditions: 5 highly drug resistant normal tissues
# MS-5 adult BM stroma = test: Cytotoxicity normal tissue 72 hr; assay type: cell-based, mouse; conditions: MS-5 (mouse), 72 hr; listed as TMZ; read-out: IC50
# [19] = system: primary patient Ewing's sarcoma xenograft in NSG mice; test: Cyclophosphamide-resistant primary Ewing's sarcoma xenograft; assay type: in vivo, mouse; conditions: cyclophosphamide 70 mg/kg i.p. x3, then BO-1055 30 mg/kg iv x4
# [20] = system: spontaneous murine B-cell lymphoma; conditions: mouse
# LY1 = conditions: human
# Experimental: as §1
# Ly3 (OCI-LY3) = conditions: human
# Experimental: as §1
# [21] = read-out: cytotoxicity IC50, NECB-1, mantle cell lymphoma
# Experimental for Ly10: as §1
# Experimental for Ly8: as §1
# Experimental for Pfeiffer: as §1
# Experimental for SUDHL-4: as §1
# Experimental for SUDHL-6: as §1
compound,measurement,setting,value
"CCOc1ccc2ccc(=O)oc2c1 [7-EC, 7-Ethoxycoumarin]",half-life,in vitro,23.5 min
same,MR (metabolic rate),[1],0.0448 nmol/min/mg
same,% Remaining at 60 min,"[1]; microsomes, 1 h",18%
same,"Microsome stability, standards","[1]; microsomes, 1 h",High standard = 95%
same,"Microsome stability, turnover","[1]; microsomes, 1 h",7-EC ≥ 82%)
"O=NN(CCCl)C(=O)NCCCl [BCNU, BCNU/Carmustine]",IC50,H889,> 45 µM
CCc1c(CO)c(CO)c2n1Cc1c(c3ccccc3n1C)C2 [BO-1978],"cytotoxicity, dose titration (FIG. 9)",MA-10-W51,"highly cytotoxic, with BO-1978 more so than BO-1055"
Cn1c(CCCC(=O)O)nc2cc(N(CCCl)CCCl)ccc21 [Bendamustine],IC50,[2],150 µM
same,IC50,[3],150 µM
same,IC50,JEKO-1 [4],6.25 µM
same,IC50,CV1 renal fibroblasts; 72 h,> 100 µM
CC(=O)O[C@@]12CO[C@@H]1C[C@H](O)[C@@]1(C)C(=O)[C@H](O)C3=C(C)[C@@H](OC(=O)[C@H](O)[C@@H](NC(=O)OC(C)(C)C)c4ccccc4)C[C@@](O)([C@@H](OC(=O)c4ccccc4)[C@H]21)C3(C)C [Docetaxel],"pathological change in heart, liver, spleen, lung and kidney",[5],no apparent pathological change
same,ALT,[6],54.08 U/L
same,AST,[6],108.60 U/L
same,BUN,[6],21.93 mg/dL
same,CREA,[6],0.32 mg/dL
same,UA,[6],3.60 mg/dL
same,BASO,[7],0.08 10^3/μL
same,EOS,[7],0.12 10^3/μL
same,LYM,[7],0.66 10^3/μL
same,MONO,[7],0.04 10^3/μL
same,NEU,[7],1.34 10^3/μL
same,PLT,[7],308 10^3/μL
same,RBC,[7],7.55 10^6/μL
same,WBC,[7],2.49 10^3/μL
COc1cccc2c1C(=O)c1c(O)c3c(c(O)c1C2=O)C[C@@](O)(C(=O)CO)C[C@@H]3O[C@H]1C[C@H](N)[C@H](O)[C@H](C)O1 [Doxorubicin],IC50,Z-138 [8],0.033 µM
same,IC50,Z-138 [8]; listed as Doxo,0.34 µM
same,interaction with BO-1055,Mino [9],both combinations were synergistic
same,IC50,Ly18,0.097 µM
same,IC50,SUDHL-6; human,0.195 µM
same,IC50,Toledo,> 10 µM
same,IC50,Ly10; human,0.084 µM
same,interaction with BO-1055,Granta,synergistic with combo-1 and antagonistic against combo-2
same,IC50,JEKO-1 [4],0.05 µM
same,IC50,SUDHL-5,0.912 µM
same,IC50,hERG,0.03 ± 0.03 µM
same,IC50,HBL1,0.211 µM
same,IC50,U2932,0.05 µM
same,IC50,NECB-1; [21],0.163 µM
same,IC50,"NECB-1; read-out: cytotoxicity IC50, NECB-1, mantle cell lymphoma, listed as Doxo",1.23 µM
same,IC50,A204 rhabdomyosarcoma,0.011 µM
same,interaction with BO-1055,Z-138 [10],both combinations were synergistic
same,IC50,Ly19,0.121 µM
same,IC50,Pfeiffer; human,0.061 µM
same,IC50,Farage,0.273 µM
same,interaction with BO-1055,NECB1,synergistic with combo-1 and antagonistic against combo-2
same,interaction with BO-1055,REC-1,both combinations were antagonistic
COc1cc([C@@H]2c3cc4c(cc3[C@@H](O[C@@H]3O[C@@H]5CO[C@@H](C)O[C@H]5[C@H](O)[C@H]3O)[C@H]3COC(=O)[C@H]23)OCO4)cc(OC)c1O [Etoposide],IC50,JEKO-1 [4],0.78 µM
N[C@@H](Cc1ccc(N(CCCl)CCCl)cc1)C(=O)O [Melphalan],IC50,JEKO-1 [4],1.1 µM
same,IC50,FBMC fetal BM stroma,> 10 µM
CC(=O)O[C@H]1C(=O)[C@@]2(C)[C@H]([C@H](OC(=O)c3ccccc3)[C@]3(O)C[C@H](OC(=O)[C@H](O)[C@@H](NC(=O)c4ccccc4)c4ccccc4)C(C)=C1C3(C)C)[C@]1(OC(C)=O)CO[C@@H]1C[C@@H]2O [Paclitaxel],IC50,Z-138 [8],0.012 µM
same,IC50,Granta-519 [11]; human,0.049 µM
same,IC50,JEKO-1 [12],0.017 µM
same,IC50,NECB-1; [21],0.064 µM
same,IC50,Mino [13]; human,0.025 µM
Cc1[nH]c2ccccc2c1CCNCc1ccc(/C=C/C(=O)NO)cc1 [Panobinostat],IC50,"JEKO-1 [4]; human, JEKO-1 mantle cell lymphoma cells, 72 h",0.21 µM
same,IC50,"NECB-1; human, NECB-1 mantle cell lymphoma cells, 72 h",0.02 µM
same,IC50,Mino [14],0.291 µM
same,IC50,Granta-519 [15],0.041 µM
CCc1c2c(nc3ccc(O)cc13)-c1cc3c(c(=O)n1C2)COC(=O)[C@]3(O)CC [SN-38],IC50,BMMSC BM mesenchyme,200 µM
same,IC50,[2]; read-out: IC50,500 µM
same,IC50,[16],2000 µM
same,IC50,[3]; read-out: IC50,400 µM
same,IC50,JEKO-1 [4],0.8 µM
CNC(=O)c1cc(Oc2ccc(NC(=O)Nc3ccc(Cl)c(C(F)(F)F)c3)cc2)ccn1 [SOR],IC50,SUDHL-6,≥ 8 µM
same,IC50,Ly8,≥ 8 µM
same,IC50,SUDHL-4,5.62 µM
same,IC50,Ly10,≥ 8 µM
same,IC50,Granta-519 [11],≥ 8 µM
same,IC50,Mino [13],≥ 8 µM
same,IC50,Pfeiffer,4.57 µM
Cn1nnc2c(C(N)=O)ncn2c1=O [Temozolomide],IC50,[17],≥ 191 µM
same,IC50,[18],≥ 20 µM
same,IC50,"CV1 renal fibroblasts; CV1 primate, 72 hr, read-out: IC50",> 100 µM
same,IC50,A204 rhabdomyosarcoma,569 µM
same,IC50,MS-5 adult BM stroma,5.59 µM
CC[C@]1(O)C[C@H]2CN(CCc3c([nH]c4ccccc34)[C@@](C(=O)OC)(c3cc4c(cc3OC)N(C=O)[C@H]3[C@@](O)(C(=O)OC)[C@H](OC(C)=O)[C@]5(CC)C=CCN6CC[C@]43[C@@H]65)C2)C1 [Vincristine],IC50,"JEKO-1 [4]; JEKO-1, 72 hr (Table 27)",0.39 µM
O=P1(N(CCCl)CCCl)NCCCO1 (centres unmarked) [cyclophosphamide],tumor growth,[19],Tumor growth was not inhibited
"CC(C)C[C@H](NC(=O)[C@H](Cc1ccccc1)NC(=O)c1cnccn1)B(O)O [velcade, Bortezomib]",IC50,[20],0.006 µM
same,interaction with BO-1055,Mino [9],synergistic cytotoxic with both combinations
same,IC50,Ly18,0.01 µM
same,IC50,SUDHL-6; human,0.001 µM
same,IC50,Ly8; human,0.078 µM
same,IC50,SUDHL-4; human,0.003 µM
same,IC50,Toledo,0.108 µM
same,IC50,LY1,0.005 µM
same,interaction with BO-1055,Granta,synergistic with combo-1 and antagonistic with combo-2
same,IC50,Granta-519 [11]; human,0.008 µM
same,IC50,SUDHL-5,0.018 µM
same,IC50,HBL1,0.004 µM
same,IC50,U2932,0.005 µM
same,IC50,NECB-1; [21],0.143 µM
same,IC50,Mino [13]; human,0.042 µM
same,IC50,Ly3 (OCI-LY3),0.021 µM
same,interaction with BO-1055,Z-138 [10],synergistic cytotoxic with both combinations
same,IC50,Pfeiffer; human,0.004 µM
same,interaction with BO-1055,NECB1,synergistic with combo-1 and antagonistic with combo-2
same,interaction with BO-1055,REC-1,antagonistic in both combinations
